The values that follow come from patent US6943183B2 (Pfizer Inc, priority 2000, dated 2005).

Structures are written as SMILES.

In one data set the test system is human lung carcinoma with K-ras mutation and p53 deletion.
Test: not given
To be noted: nude mice; cited from earlier work.
As for `CSCC[C@H](NC(=O)c1ccc(NC[C@@H](N)CS)cc1-c1ccccc1)C(=O)O` [FTI276], the “block of tumor growth” value was “selectively block tumor growth”.

In a further data set the target is T1, SF9 affinity purified rat FPT (Rattus norvegicus, UniProt Q02293+Q04631).
T1 construct: made in house; host or cells: Sf9 insect cells
Nature of the data set: PFT (FPT) inhibitory activity assay, radiolabeled farnesyl pyrophosphate and biotinyl peptide, streptavidin beads. The note with it: HEPES buffer pH 7.4, 30° C., 30 minutes; read-out: FTase IC50. The data set is classed as biochemical. A digest of the protocol:
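Rat FPT expressed in SF9 cells was incubated 30 minutes at 30° C. with compound (in 10% DMSO), radiolabeled farnesyl pyrophosphate and biotinylated peptide. Buffer: HEPES pH 7.4, ZnCl2 20 μM, MgCl2 and DTT 5 mM each, 0.1% PEG 8000, 5 mM potassium phosphate (also run without phosphate). Product captured on streptavidin beads in magnesium acetate/H3PO4 stop buffer.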
Regarding `Nc1nccn1CC(Oc1ccc2c(c1CCc1ccccc1)CCCC2=O)c1ccccc1` (stereo not drawn) [Compound 63r, 6-[2-(2-Amino-imidazol-1-yl)-1-phenyl-ethoxy]-5-phenethyl-3,4-dihydro-2H-naphthalen-1-one], the IC50 (as a rule, the point on the concentration scale where inhibition reaches its midpoint) was 35 nM.
The same measure, in the same setting: for `CC(O)CNC(=O)c1ccc(S(=O)(=O)Cc2c(O[C@H](Cn3ccnc3)c3ccccc3)ccc3c2CCCC3=O)cc1` (stereo partly drawn) [Compound 253, N-(2-Hydroxypropyl)-4-{[(2-{[(1S)-2-(1H-imidazol-1-yl)-1-phenylethyl]oxy}-5-oxo-5,6,7,8-tetrahydro-1-naphthalenyl)methyl]sulfonyl}benzamide] the value was 0.7 nM; for `CC(C)[S+]([O-])Cc1c(O[C@H](Cn2ccnc2)c2ccccc2)ccc2c1CCCC2=O` (mixture of isomers) [Compound 143, 6-((S)-2-Imidazol-1-yl-1-phenyl-ethoxy)-5-(propane-2-sulfinylmethyl)-3,4-dihydro-2H-napthalen-1-one], 1.4 nM; for `O=C1CCCc2c1ccc(O[C@H](Cn1ccnc1)c1ccccc1)c2CNS(=O)(=O)c1ccccc1` [Compound 42, N-[2-((S)-2-Imidazol-1-y-1-phenyl-71-ethoxy)-5-oxo-5,6,7,8-tetrahydro-naphthalen-1-ylmethyl]-benzenesulfonamide], 1.5 nM.
Still for that read-out and setting: for `O=C(NC(CO)CO)c1ccccc1S(=O)(=O)Cc1c(O[C@H](Cn2ccnc2)c2ccccc2)ccc2c1CCCC2=O` [Compound 237, N-[2-Hydroxy-1-(hydroxymethyl)ethyl]-2-{[(2-{[(1S)-2-(1H-imidazol-1-yl)-1-phenylethyl]oxy}-5-oxo-5,6,7,8-tetrahydro-1-naphthalenyl)methyl]sulfonyl}benzamide] the value was 0.28 nM.
Still for that read-out and setting: the same measure for `C=CCNC(=O)c1ccccc1S(=O)(=O)Cc1c(O[C@H](Cn2ccnc2)c2ccccc2)ccc2c1CCCC2=O` [Compound 207, N-Allyl-2-{[(2-{[(1S)-2-(1H-imidazol-1-yl)-1-phenylethyl]oxy}-5-oxo-5,6,7,8-tetrahydro-1-naphthalenyl)methyl]sulfonyl}benzamide]: 0.2 nM; for `CSCC[C@H](NC(=O)OC(C)(C)C)C(=O)NCc1c(O[C@H](Cn2ccnc2)c2ccccc2)ccc2c1CCCC2=O` [Compound 42j, ((S)-1-{[2-((S)-2-Imidazol-1-yl-1-phenyl-ethoxy)-5-oxo-5,6,7,8-tetrahydro-napthalen-1-ylmethyl]-carbamoyl}-3-methylsulfanyl-propyl)-carbamic acid tert-butyl ester]: 4.4 nM; for `C=CCc1c(O[C@H](Cn2ccnc2)c2ccccc2)ccc2c1CCC2=O` [Compound 56]: 15 nM.
Turning to `CCC(CC)OCc1c(O[C@H](Cn2ccnc2)c2ccccc2)ccc2c1CCCC2=O` [Compound 19c, 5-(1-Ethyl-propoxymethyl)-6-((S)-2-imidazol-1-yl-1-phenyl-ethoxy)-3,4-dihydro-2H-naphthalen-1-one], the half-inhibitory concentration (IC50) was 1.4 nM.
Turning to `O=C(NC(CO)CO)c1cccc(S(=O)(=O)Cc2c(O[C@H](Cn3ccnc3)c3ccccc3)ccc3c2CCCC3=O)c1` [Compound 236, N-[2-Hydroxy-1-(hydroxymethyl)ethyl]-3-{[(2-{[(1S)-2-(1H-imidazol-1-yl)-1-phenylethyl]oxy}-5-oxo-5,6,7,8-tetrahydro-1-naphthalenyl)methyl]sulfonyl}benzamide], the IC50 was determined as 0.2 nM.
With `COc1cccc(OCc2c(O[C@H](Cn3ccnc3)c3ccccc3)ccc3c2CCCC3=O)c1` [Compound 105, 6-((1S)-2-Imidazolyl-1-phenylethoxy)-5-[(3-methoxyphenoxy)methyl]-2,3,4-trihydronaphthalen-1-one], the IC50 came to 5 nM.
As for `O=C1CCCc2c1ccc(O[C@H](Cn1ccnc1)c1ccccc1)c2CNS(=O)(=O)c1cc(Cl)sc1Cl` [Compound 42d, 2,5-Dichloro-thiophene-3-sulfonic acid [2-((S)-2-imidazol-1-yl-1-phenyl-ethoxy)-5-oxo-5,6,7,8-tetrahydro-naphthalen-1-ylmethyl]-amide; compound with trifluoro-acetic acid], the IC50 came to 2 nM.
As for `O=C1CCCc2c1ccc(O[C@H](Cn1ccnc1)c1ccccc1)c2CSc1ccccn1` [Compound 9, 6-((1S)-2-Imidazolyl-1-phenylethoxy)-5-(2-pyridylthiomethyl)-2,3,4-trihydronaphthalen-1-one], the half-maximal inhibitory concentration (IC50) was 4 nM.
As to `C#CCNC(=O)c1ccccc1S(=O)(=O)Cc1c(O[C@H](Cn2ccnc2)c2ccccc2)ccc2c1CCCC2=O` [Compound 216, 2-{[(2-{[(1S)-2-(1H-Imidazol-1-yl)-1-phenylethyl]oxy}-5-oxo-5,6,7,8-tetrahydro-1-naphthalenyl)methyl]sulfonyl}-N-(2-propynyl)benzamide], the IC50 was 0.4 nM.
On to `O=C1CCCc2c1ccc(O[C@H](Cn1ccnc1)c1ccccc1)c2COc1ccc2ccccc2c1` [Compound 85], for which the IC50 is 10 nM.
Same read-out and setting: the same measure for `O=C(NC1CC1)c1ccccc1SCc1c(O[C@H](Cn2ccnc2)c2ccccc2)ccc2c1CCCC2=O` [Compound 228, N-Cyclopropyl-2-{[(2-{[(1S)-2-(1H-imidazol-1-yl)-1-phenylethyl]oxy}-5-oxo-5,6,7,8-tetrahydro-1-naphthalenyl)methyl]sulfanyl}benzamide]: 0.2 nM.
On the same count and under the same terms, for `Cc1nccn1CC(Oc1ccc2c(c1CCc1ccccc1)CCCC2=O)c1ccccc1` (racemic) [Compound 63o, (±)-6-[2-(2-Methyl-imidazol-yl)-1-phenyl-ethoxy]-5-phenethyl-3,4-dihydro-2H-naphthalen-1-one] the value was 4 nM; for `O=C1CCCc2c1ccc(O[C@H](Cn1ccnc1)c1ccccc1)c2COc1ccc2ncccc2c1` [Compound 108, 6-((1S)-2-Imidazolyl-1-phenylethoxy)-5-(6-quinolyloxymethyl)-2,3,4-trihydronaphthalen-1-one], 3 nM; for `CC[C@H](C)CNC(=O)c1cccc(SCc2c(O[C@H](Cn3ccnc3)c3ccccc3)ccc3c2CCCC3=O)c1` [Compound 252, 3-{[(2-{[(1S)-2-(1H-Imidazol-1-yl)-1-phenylethyl]oxy}-5-oxo-5,6,7,8-tetrahydro-1-naphthalenyl)methyl]sulfanyl}-N-[(2S)-2-methylbutyl]benzamide], 0.2 nM.
In the case of `CC(C)S(=O)(=O)Cc1c(O[C@H](Cn2ccnc2)c2ccccc2)ccc2c1CCCC2=O` [Compound 7], the IC50 is 6 nM.
On the same count and under the same terms, for `O=C(NC1CCCC1)c1cccc(S(=O)(=O)Cc2c(O[C@H](Cn3ccnc3)c3ccccc3)ccc3c2CCCC3=O)c1` [Compound 218, N-Cyclopentyl-3-{[(2-{[(1S)-2-(1H-imidazol-1-yl)-1-phenylethyl]oxy}-5-oxo-5,6,7,8-tetrahydro-1-naphthalenyl)methyl]sulfonyl}benzamide] the value was 0.2 nM; for `CSCC[C@H](N)C(=O)NCc1c(O[C@H](Cn2ccnc2)c2ccccc2)ccc2c1CCCC2=O` [Compound 42k, (S)-2-Amino-N-[2-((S)-2-imidazol-1-yl-1-phenyl-ethoxy)-5-oxo-5,6,7,8-tetrahydro-naphthalen-1-ylmethyl]-4-methylsulfanyl-butyramide], 16 nM; for `O=C(Nc1c(O[C@H](Cn2ccnc2)c2ccccc2)ccc2c1CCCC2=O)c1cccnc1Oc1ccccc1` [Compound 40f, N-[2-((S)-2-Imidazol-1-yl-1-phenyl-ethoxy)-5-oxo-5,6,7,8-tetrahydro-naphthalen-4-1-yl]-2-phenoxy-nicotinamide], 13 nM.
Same read-out and setting: the same measure for `C#CCNC(=O)c1ccc(SCc2c(O[C@H](Cn3ccnc3)c3ccccc3)ccc3c2CCCC3=O)cc1` [Compound 212, 4-{[(2-{[(1S)-2-(1H-Imidazol-1-yl)-1-phenylethyl]oxy}-5-oxo-5,6,7,8-tetrahydro-1-naphthalenyl)methyl]sulfanyl}-N-(2-propynyl)benzamide]: 0.2 nM; for `O=C(O)c1cccc(S(=O)(=O)Cc2c(O[C@H](Cn3ccnc3)c3ccccc3)ccc3c2CCCC3=O)c1` [Compound 161, 3-{[(2-{[(1S)-2-(1H-Imidazol-1-yl)-1-phenylethyl]oxy}-5-oxo-5,6,7,8-tetrahydro-1-naphthalenyl)methyl]sulfonyl}benzoic Acid]: 5 nM; for `O=C(O)CCNC(=O)c1ccc(SCc2c(O[C@H](Cn3ccnc3)c3ccccc3)ccc3c2CCCC3=O)cc1` [Compound 170, N-4-{[(2-{[(1S)-2-(1H-Imidazol-1-yl)-1-phenylethyl]oxy}-5-oxo-5,6,7,8-tetrahydro-1-naphthalenyl)methyl]sulfanyl}benzoyl-β-alanine]: 7 nM.
Turning to `CC(=O)N(Cc1c(O[C@H](Cn2ccnc2)c2ccccc2)ccc2c1CCCC2=O)c1ccc(C)cc1` [Compound 144, N-[2-((S)-2-Imidazol-1-yl-1-phenyl-ethoxy)-5-oxo-5,6,7,8-tetrahydro-naphthalen-1-ylmethyl]-N-β-tolyl-acetamide], the IC50 stood at 35 nM.

The next data set relates to HT1080 human fibrosarcoma.
Test: not given
To be noted: 100 mg/kg, xenograft in nude mice; cited from earlier work.
Consider `COC(=O)[C@H](CCSC)NC(=O)[C@H](/C=C\[C@@H](/C=C/[C@@H](N)CS)C(C)C)Cc1ccccc1` [Compound B1086], for which the “inhibition of tumor growth” value is recorded as “inhibit tumor growth”.

The next data set deals with mammary and salivary carcinomas.
Test: not given
To be noted: daily administration, ras transgenic mice; cited from earlier work.
Take `CC[C@H](C)[C@@H](CO[C@@H](Cc1ccccc1)C(=O)N[C@@H](CCS(C)(=O)=O)C(=O)OC(C)C)NC[C@@H](N)CS` [L-744,832]: the tumor regression result was “tumor regression”.

A further data set relates to EJ-1 human bladder carcinoma.
Test: not given
To be noted: 100 mg/kg, xenograft in nude mice; cited from earlier work.
Take `COC(=O)[C@H](CCSC)NC(=O)[C@H](/C=C\[C@@H](/C=C/[C@@H](N)CS)C(C)C)Cc1ccccc1` [Compound B1086]: the “inhibition of tumor growth” value is reported as “inhibit tumor growth”.

Another data set has as its system human colon carcinoma xenografts.
Test: not given
The note with it: 100 mg/kg, xenograft in nude mice; cited from earlier work.
Consider `COC(=O)[C@H](CCSC)NC(=O)[C@H](/C=C\[C@@H](/C=C/[C@@H](N)CS)C(C)C)Cc1ccccc1` [Compound B1086], for which the “inhibition of tumor growth” value is “inhibit tumor growth”.

System in a further data set: not given
Test: not given
Conditions: not given
With `Nc1nccn1CC(Oc1ccc2c(c1CCc1ccccc1)CCCC2=O)c1ccccc1` (stereo not drawn) [Compound 63r, 6-[2-(2-Amino-imidazol-1-yl)-1-phenyl-ethoxy]-5-phenethyl-3,4-dihydro-2H-naphthalen-1-one], the melting point (in general, the temperature of the solid-liquid transition) is 185 to 188 °C.
